Measurements as given in patent publication US20250262139A1, “POLYPEPTIDES AND METHODS FOR IMPROVING SKIN CONDITIONS” (INTERK PEPTIDE THERAPEUTICS LIMITED, priority 2020, published 2025).
“Also recorded” adds a separate entry of the source. Where no end group is shown, it is not given here. [ ]: non-standard residue; d: D form.

Columns and labels:
[1] = tested on: ICR mice, punch skin wound; experiment: murine wound model, wound closure; assay type: in vivo; details: topical 10 μg per mouse daily for 10 consecutive days
Excerpt: FIGS. 1 and 2 illustrate the effect of polypeptides IK34720 (SEQ ID NO: 3—RSKAKNPLYRRRRRRRRR) (FIG. 1) and the dextro-reverso sequence IK236770 (SEQ ID NO: 4—rrrrrrrrrylpnkaksr) (FIG. 2), on wound healing over 10 days in a murine wound model in accordance with the following protocol.
Three groups of 8 male ICR mice with a mean weight of 22 g (+2 g) were used in the present study. The animals were housed in individual cages during the study. Under isoflurane gas anaesthesia, the shoulder and back region of each animal was shaved and a sharp punch (ID 12 mm) was used to induce a wound by removing the skin, including panniculus carnosus and adherent tissues on Day 1.
Following induction of the wound the polypeptides IK34720 and IK236770 were topically administered to the site of the wound at a dosage of 10 μg per animal. […] An additional group which comprised the administration of Phosphate buffered Saline (PBS) at pH 7.4 was used as a negative control.
The wound healing was analysed on Days 5, 7, 9 and 11 by tracing the periphery of the wound onto clear plastic sheets with the wound area calculated by an Image analyzer ProPlus (Media Cybernetics, Version 4.5.0.29. The percentage closure of the wound (%) was calculated. Percentage closure of the wound was determined on 5, 7, 9 and 11. ANOVA and Dunnett's test were applied to test significant significance between the treated groups (peptide and positive control groups) and the negative control group at each time point of measurement. Differences were considered statistically significant at P<0.05, and are indicated by *.

MMP1 = MMP1 immunohistochemical staining in UV-irradiated human skin explants; assay type: cell-based; details: 3 hrs post irradiation/treatment; Calcitriol 1 nM; IK34720 50, 250 or 500 μM
Description: Human skin (2×human explant tissues) removed at elective surgery was cleaned, dissected and cut into pieces of approx. 5 mm×5 mm. Each piece was placed in a well of a 96 well plate, with individual plates prepared to assess the effects 3 hrs post treatment. Skin was subjected to UV-radiation from solar-simulated UV source for 1.5 h (UVR), or non-irradiation (SHAM), and treated immediately after with a vehicle control, Calcitriol (1 nM) or the polypeptide IK34720 (SEQ ID NO: 3) at concentrations of 50 μM, 250 μM or 500 μM. In FIG. 17, IK50, IK250 and IK500 as μM concentrations refers to 15 μg, 75 μg and 150 μg of IK34720 per 120 μL culture medium/explant, respectively.
Samples harvested at 3 hrs were fixed, sectioned, immunohistochemically stained for MMP1 and quantified for MMP1 expression, by expressing epidermal area stained for MMP1 as a function of total epidermal area examined.

dermal fibroblasts = experiment: TBARS lipid peroxidation assay, UV-irradiated dermal fibroblasts; assay type: cell-based; details: IK-3 at the highest concentration (5 μM); 1,25D
Description: The ability of the polypeptide RSKAKNPLYRRRRRRRRR to alter UV-induced oxidative damage of cell-derived lipids was examined using the TBARS thiobarbituric acid-reactive substances (TBARS) lipid peroxidation assay.
After irradiation or sham-irradiation of dermal fibroblasts, supernatants (900 μL) were collected. In brief, 90 μL of butylated hydroxytoluene (2% w/w in ethanol) was added and samples kept frozen (−20° C.) until the TBARS assay. Petri dishes were washed twice with 1 mL of HBSS, cells scraped in 600 μL of water and 60 μL of 0.5% aqueous Triton X100 added to this solution, for protein determination carried out by the Lowry method (Lowry O H et al, J. Biol. Chem., 1951, 193:265-275). TBARS were fluorometrically assayed as described (Morlière P et al, Biochim. Biophys. Acta, 1991, 1084:261-268). Briefly, thawing samples were heated in the presence of thiobarbituric acid in acidic conditions, and TBARS extracted with 1-butanol and fluorometrically quantified (λexc=515 nm and Aem=550 nm). Tetraethoxypropane, which quantitatively yields the malondialdehyde-thiobarbituric acid adduct in the assay conditions, was used for calibration. TBARS values, expressed in malondialdehyde (MDA) equivalents, were normalized to the cell protein for each Petri dish. Each TBARS determination was performed in triplicate (e.g., with three Petri dishes per data point).

human skin explants = experiment: CPD formation in UV-irradiated human skin explants; assay type: cell-based; details: 3 hrs post irradiation/treatment; Calcitriol 1 nM; IK34720 50, 250 or 500 μM
Description: Human skin removed at elective surgery was cleaned, dissected and cut into pieces of approx. 5 mm×5 mm. Each piece was placed in a well of a 96 well plate, with individual plates prepared to assess the effects 3 hrs post treatment. All samples were performed in triplicate for each treatment. Skin was subjected to UV-radiation from solar-simulated UV source for 1.5 h (UVR), or non-irradiation (SHAM). Given that human skin is thicker than mouse skin, human skin explants were exposed to a radiation dose three times higher than that used for mouse skin, i.e., 20 J/cm2 versus 7 J/cm^2, respectively, and the output spectrum of the laboratory solar simulator has previously been reported (Rybchyn M S et al, J Invest Dermatol. 2018 May; 138 (5): 1146-1156) and treated immediately after with a vehicle control, Calcitriol (1 nM) or the polypeptide IK34720 (SEQ ID NO: 3) at concentrations of 50 μM, 250 μM or 500 μM.
Samples harvested at 3 hrs were fixed, section, stained and quantified as described in Example 5.

primary keratinocytes = experiment: CPD detection by IHC in keratinocytes 3 h following UV-irradiation; assay type: cell-based; details: 5 μM after ssUV; fixed 3 h after UV
Description: An in vitro assay was conducted allowing for densitometry analysis of CPD detection by IHC in keratinocytes 3 h following UV-irradiation in accordance with the following protocol.
Keratinocytes were harvested and cultured as described above at Example 2. Samples were split into two groups, being UV irradiated (UVR) and non-UV irradiated (SHAM). UV-irradiation was performed by solar simulated UV-irradiation for cells, also as described above at Example 2. Irradiation solution was PBS containing 5 mM D-glucose. […]
Harvested keratinocytes were plated on poly-D-lysine coated coverslips in 96 well plates and irradiated (or sham treated) as described above in at Example 2 in PBS containing 5 mM D-glucose. Keratinocytes were fixed 3 h after UV-irradiation. Immunohistochemistry and image analysis were performed as described previously (Gordon-Thomson et al., Photochem Photobiol Sci, 2012, 11 (12): 1837-47; Gupta et al., vide supra, Rybchyn M S et al., J Invest Dermatol, 2018; 138 (5): 1146-1156). Thymine dimers were detected using the anti-thymine dimer antibody (Sigma-Aldrich, Missouri, USA) at 10 μg/mL, and quantified as an index of CPD, as previously described (Douki T and Cadet J, Biochemistry, 2001, 40 (8): 2495-501).
Following irradiation, keratinocytes were treated with either Calcitriol, vehicle control (Veh) or the polypeptide IK34720 (SEQ ID NO: 3; “IK”) IK14800; (RSKAKNPLYRRRRRRRRR), RSKAKNPLY (IK94000) and RRRRRRRRR (IK00900), at concentrations of 5 μM.

[2] = molecular target: T1, polypeptide IK34720 (RSKAKNPLYRRRRRRRRR)
T1 chain: RSKAKNPLYRRRRRRRRR

Question: `CCNC(=O)[C@H]1O[C@@H](n2cnc3c(N)nc(NCCc4ccc(CCC(=O)O)cc4)nc32)[C@H](O)[C@@H]1O` [CGS-21680, reference compound] was tested. Which wound closure percentage ([1]; Day 5 to Day 11, vs negative control (PBS)) did it give?
Answer: Its wound closure percentage is “increase wound healing”.

Question: How did the “cells staining for MMP-1” value (MMP1) turn out when `C=C1/C(=C\C=C2/CCC[C@]3(C)[C@@H]([C@H](C)CCCC(C)(C)O)CC[C@@H]23)C[C@@H](O)C[C@@H]1O` [Calcitriol, 1,25-dihydroxyvitamin D3, reference compound] was run?
Answer: The value was “fewer stained cells”.

Question: What about the “significant difference in TRS (TBA reactive substances) between Sham and UV irradiation” value (dermal fibroblasts) of the same molecule?
Answer: Its value is “not seen”.

Question: And the “cells stained for CPDs” value (human skin explants)?
Answer: The value was “fewer stained cells”.

Question: Which results are given for RRRRRRRRR [IK00900]?
Answer: CPD levels compared to vehicle-treated UV-irradiated keratinocytes (primary keratinocytes): decrease CPD levels; also recorded: statistically significant (*p<0.05) reduction in CPD levels; reduction in CPD levels compared to Calcitriol (primary keratinocytes): comparable reduction in CPD levels to keratinocytes treated with Calcitriol

Question: “RSKAKNPLY (not fully specified (some residues)) [IK94000]” was tested. Which “CPD levels compared to vehicle-treated UV-irradiated keratinocytes” value (primary keratinocytes) did it give?
Answer: The value was “decrease CPD levels; also recorded: statistically significant (*p<0.05) reduction in CPD levels”.

Question: And the “reduction in CPD levels compared to Calcitriol” value (primary keratinocytes)?
Answer: The value was “comparable reduction in CPD levels to keratinocytes treated with Calcitriol”.

Question: For “rrrrrrrrrylpnkaksr ([dR][dR][dR][dR][dR][dR][dR][dR][dR][dY][dL][dP][dN][dK][dA][dK][dS][dR]) [IK236770]”, which “wound healing (wound closure % percentage)” value ([1]; day 5, vs negative control) is on record?
Answer: Its value is “statistically significant increase in wound healing”.

B1: Human rheumatoid synovial fibroblast MMP-1 proenzyme, activated with APMA (protein)
chain: FVLTEGNPRWEQTHLTYRIENYTPDLPRADVDHAIEKAFQLWSNVTPLTFTKVSEGQADIMISFVRGDHRDNSPFDGPGGNLAHAFQPGPGIGGDAHFDEDERWTNNFREYNLHRVAAHELGHSLGLSHSTDIGALMYPSYTFSGDVQLAQDDIDGIQAIYGRSQNPVQPIGPQTPKACDSKLTFDAITTIRGEVMFFKDRFYMRTNPFYPEVELNFISVFWPQLPNGLEAAYEFADRDEVRFFKGNKYWAVQGQNVLHGYPKDIYSSFGFPRTVKHIDAALSEENTGKTYFFVANKYWRYDEYKRSMDPGYPKMIAHDFPGIGHKVDAVFMKDGFFYFFHGTRQYKFDPKTKRILTLQKANSWFNCRKN
Question: For B1, which “MMP-1 enzyme activity in vitro (fluorimetric cleavage of Mca-Pro-Leu-Gly-Leu-Dap-Ala-Arg; peptide at 5, 10, 800 and 1000 uM pre-incubated with 8 nM activated enzyme)” value [2] is on record?
Answer: The value was “inhibits MMP-1 activation in a dose dependent manner”.
